Results published in patent US8168667B2 (Galapagos NV, priority 2006, dated 2012).
Read-outs that look alike come from different tables or passages of the source.

Tests used:
[1] = molecular target: T1, human androgen receptor (hAR) (Homo sapiens, UniProt P10275); test: Functional response test: hAR transactivation (luciferase reporter) in HALP2 cells; assay type: cell-based; conditions: for EC50: agonism, HALP2 cells (HeLa, hAR + ARE-luciferase), 20 hours at 37° C.
T1 sequence (P10275 1-920): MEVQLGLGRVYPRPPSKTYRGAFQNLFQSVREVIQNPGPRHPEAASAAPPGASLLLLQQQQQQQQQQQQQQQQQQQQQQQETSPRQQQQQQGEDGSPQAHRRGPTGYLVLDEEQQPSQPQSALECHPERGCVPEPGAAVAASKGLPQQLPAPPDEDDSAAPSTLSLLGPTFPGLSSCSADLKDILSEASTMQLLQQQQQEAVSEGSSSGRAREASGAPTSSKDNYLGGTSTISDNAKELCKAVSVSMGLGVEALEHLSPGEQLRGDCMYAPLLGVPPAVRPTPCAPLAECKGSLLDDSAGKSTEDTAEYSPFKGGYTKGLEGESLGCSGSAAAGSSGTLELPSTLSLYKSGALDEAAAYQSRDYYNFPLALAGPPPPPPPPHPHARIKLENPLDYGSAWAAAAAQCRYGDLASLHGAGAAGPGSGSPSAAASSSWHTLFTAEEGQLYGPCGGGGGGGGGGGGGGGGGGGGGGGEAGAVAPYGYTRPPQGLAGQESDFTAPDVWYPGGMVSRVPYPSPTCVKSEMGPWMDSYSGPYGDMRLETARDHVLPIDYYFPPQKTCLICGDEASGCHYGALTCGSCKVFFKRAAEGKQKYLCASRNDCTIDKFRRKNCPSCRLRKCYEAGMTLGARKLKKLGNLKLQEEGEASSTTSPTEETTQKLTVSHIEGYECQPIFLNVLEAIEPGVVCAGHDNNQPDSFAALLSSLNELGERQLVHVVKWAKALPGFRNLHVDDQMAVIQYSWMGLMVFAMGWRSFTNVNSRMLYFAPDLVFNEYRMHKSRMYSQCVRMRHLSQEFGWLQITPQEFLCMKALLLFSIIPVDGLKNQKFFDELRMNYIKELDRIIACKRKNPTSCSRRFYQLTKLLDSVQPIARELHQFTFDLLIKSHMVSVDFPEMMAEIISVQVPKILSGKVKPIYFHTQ
Procedure, shortened: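 HALP2 cells are HeLa cells stably transfected with CMV-driven hAR and a probasin ARE-luciferase reporter. They were seeded 24 h ahead, then exposed to compounds for 20 hours at 37° C in phenol red-free DMEM with 5% desteroided serum. Luciferase luminescence was measured after lysis; for antagonist mode, compounds were tested against increasing DHT concentrations.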

[2] = test system: castrated immature young rats; test: Adapted model of Hershberger's test (levator ani and ventral prostate weight); assay type: in vivo, Sprague Dawley rats; conditions: Rattus norvegicus, po, 96 h
Experimental: The selective modulating activity of the androgen receptor was tested in a model of castrated immature young rats. This model, which is widely recognised for evaluating the anabolic effects of androgen compounds on the muscles and on the genitalia, has been described by Hershberger et al. 1953 Proc. Soc. Expt. Biol. Med. 83:175.
The method is based on the measurement of the well-known effects of androgens on the growth of the muscles and the accessory male sex organs in animals, and also in men. The consequences of castration appear in the form of a rapid involution and atrophy of the prostate and the seminal vesicles and of the anus-lifting muscle (levator ani). This effect may be completely compensated by an exogeneous administration of androgen, in particular of testosterone. The model is thus used to determine the capacity of the tested molecules to maintain the weight of the accessory sex and muscle organs in immature castrated rats, and therefore their androgenic efficacy.
Immature young Sprague Dawley rats (4 to 5 weeks old) weighing approximately 140-160 g (Charles River, Les Oncins, FRANCE) were distributed randomly in various groups and were kept in an environment at 22±2° C. with an alternating day/night cycle of 12 hours and ad libitum access to food and drink.
On day 0, that is, seven days before commencement of the first treatment, the rats were weighed individually then anaesthetised with an intraperitoneal dose of Ketamine/xylazine (85/15 mg/kg, approximately 2 ml/kg). Each animal was then placed on a sterile field and the abdomen and the scrotum were disinfected with Betadine and 70% alcohol. In the case of the orchidectomised control animals (ORX), the testicles were removed via an incision in the middle of the scrotum. A sterile suture was then made to ligature the supra-testicular portion of the tissue prior to surgical section of each testicle. The groups of animals to be treated by the tested compounds were operated on in an identical manner. In the case of the intact control animals (SHAM), the testicles were similarly extracted and reintroduced delicately to their original location. The site of surgical intervention was then sutured using sterile suture thread, and the site was disinfected again by application of Betadine. Each animal was then kept under a sterile pad until it awoke, before being returned to its cage. The animals were kept in an environment at 22±2° C. with an alternating day/night cycle of 12 hours and ad libitum access to food and drink. The animals were treated with the molecules to be tested from post-surgery day 7 and until day 10 preceding sacrifice (day 11).
The rats were split into groups and treated daily from day 7 to day 10 under the conditions defined below: • 1. SHAM control group: Vehicle (0.5% aqueous methyl cellulose) administered per os. • 2. ORX control group: Vehicle (0.5% aqueous methyl cellulose) administered per os. • 3. Treated ORX group: The tested compounds were administered individually per os in suspension in the vehicle described above, in a dose of 30 mg/kg.
After treatment for 4 successive days, the animals were decapitated using a guillotine. The levator ani and the ventral prostate were removed and weighed individually. For comparing inter-experimental data, the weight of each organ was standardised and expressed in milligrammes per 100 g of the weight of the animal (W). For each organ, the average of the standardised weights of the ORX control group was fixed by definition at 0% and the average of the standardised weights of the SHAM control group was fixed by definition at 100%. The efficacy of each product was expressed as a percentage and calculated using the following formula: (Wtreated−WORX)/(WSHAM−WORX)×100 A subsequent ANOVA test was used for statistical analysis to identify the differences between groups.

[3] = antagonism, concentration which increases the EC50 of the DHT by a factor of 2, Schild regression, HALP2 cells
[4] = read-out: anabolic protection efficacy with regard to levator ani
[5] = read-out: androgenic efficacy with regard to the prostate

Row | Structure (SMILES) | melting point | KSchild (nM) potency [1] | other results
1 | CN1C(=O)N(c2ccc(Cl)c(Cl)c2)C(=O)C1(CO)c1ccc(O)cc1 (stereo not shown) [Example 175, 1-(3,4-dichlorophenyl)-4-hydroxymethyl-4-(4-hydroxyphenyl)-3-methylimidazolidine-2,5-dione] | 215.6 °C | – | EC50 [1]: 1.38 nM; KSchild (nM) potency [1, 3]: 0.37 nM; inhibition in vivo at 30 mg/kg ([2]; ORX rats, 30 mg/kg per os, 4 successive days, ORX = 0%, SHAM = 100%, read-out: anabolic protection efficacy with regard to levator ani): 50 to 140%; inhibition in vivo at 30 mg/kg ([2]; ORX rats, 30 mg/kg per os, 4 successive days, ventral prostate, ORX = 0%, SHAM = 100%, read-out: androgenic efficacy with regard to the prostate): 5 to 70%
2 | CCN1C(=O)N(c2ccc(C#N)c(C(F)(F)F)c2)C(=O)C1(C)c1ccc(O)cc1 (stereo not shown) [Example 224, 4-[2,5-dioxo-3-ethyl-4-(4-hydroxyphenyl)-4-methylimidazolidin-1-yl]-2-trifluoromethylbenzonitrile] | 165 °C | – | KSchild (nM) potency [1, 3]: 2 nM
3 | CC1(c2ccc(O)cc2)C(=O)N(c2ccc(C#N)c(C(F)(F)F)c2)C(=O)N1CCF (stereo not shown) [Example 226, 4-[2,5-dioxo-3-(2-fluoroethyl)-4-(4-hydroxyphenyl)-4-methylimidazolidin-1-yl]-2-trifluoromethylbenzonitrile] | 157 °C | 2.45 nM | –
4 | COCN1C(=O)N(c2ccc(C#N)c(C(F)(F)F)c2)C(=O)[C@@]1(C)c1ccc(O)cc1 [Example 222.1, (R)-4-[2,5-dioxo-4-(4-hydroxyphenyl)-3-methoxymethyl-4-methylimidazolidin-1-yl]-2-trifluoromethylbenzonitrile] | 97 °C | 4 nM | inhibition in vivo at 30 mg/kg [2, 4]: 50 to 140%; inhibition in vivo at 30 mg/kg [2, 5]: 5 to 70%
5 | C#CCN1C(=S)N(c2ccc(C#N)c(C(F)(F)F)c2)C(=O)C1(C)c1ccc(O)cc1 (stereo not shown) [Example 43, 4-[4-(4-hydroxyphenyl)-4-methyl-5-oxo-3-(2-propynyl)-2-thioxoimidazolidin-1-yl]-2-trifluoromethylbenzonitrile] | 169 °C | 0.49 nM | –
6 | COc1cc(N2C(=O)N(C)[C@](C)(c3ccc(O)cc3)C2=O)ccc1C#N [Example 156.2, (R)-4-[3,4-dimethyl-2,5-dioxo-4-(4-hydroxyphenyl)imidazolidin-1-yl]-2-methoxybenzonitrile] | 100 °C | 1.5 nM | inhibition in vivo at 30 mg/kg [2, 4]: 50 to 140%; inhibition in vivo at 30 mg/kg [2, 5]: 5 to 70%
7 | COCN1C(=O)N(c2ccc(C#N)c(OC)c2)C(=O)C1(C)c1ccc(O)cc1 (stereo not shown) [Example 223.1, 4-[4-(4-hydroxyphenyl)-3-methoxymethyl-4-methyl-2,5-dioxoimidazolidin-1-yl]-2-methoxybenzonitrile] | 141 °C | 4 nM | –
8 | CCOCN1C(=O)N(c2ccc(C#N)c(C(F)(F)F)c2)C(=O)C1(C)c1ccc(O)cc1 (stereo not shown) [Example 221, 4-[3-(ethoxymethyl)-4-(4-hydroxyphenyl)-4-methyl-2,5-dioxoimidazolidin-1-yl]-2-trifluoromethylbenzonitrile] | 143 °C | 5.66 nM | –
9 | C#CCC1(c2ccc(O)cc2)C(=O)N(c2ccc(C#N)c(C(F)(F)F)c2)C(=O)N1C (stereo not shown) [Example 177.3, 4-[2,5-dioxo-4-(4-hydroxyphenyl)-3-methyl-4-(2-propynyl)imidazolidin-1-yl]-2-trifluoromethylbenzonitrile] | 122 °C | 15 nM | –
10 | CN1C(=O)N(c2ccc(Cl)c(Cl)c2)C(=O)C1(C)c1ccc(O)cc1 (stereo not shown) [Example 25, 1-(3,4-dichlorophenyl)-3,4-dimethyl-4-(4-hydroxyphenyl)imidazolidine-2,5-dione] | 184 °C | 10.9 nM | –
11 | CCCN1C(=O)N(c2ccc(C#N)c(C(F)(F)F)c2)C(=O)C1(C)c1ccc(O)cc1 (stereo not shown) [Example 225, 4-[2,5-dioxo-4-(4-hydroxyphenyl)-4-methyl-3-propylimidazolidin-1-yl]-2-trifluoromethylbenzonitrile] | 125 °C | 2.83 nM | –
12 | CN1C(=O)N(c2ccc(Cl)c(Cl)c2)C(=O)C1(CF)c1ccc(O)cc1 (stereo not shown) [Example 184, 1-(3,4-dichlorophenyl)-4-fluoromethyl-4-(4-hydroxyphenyl)-3-methylimidazolidine-2,5-dione] | 167.2 °C | – | EC50 [1]: 4.9 nM; KSchild (nM) potency [1, 3]: 2.8 nM
13 | CN1C(=O)N(c2ccc(C#N)c(C(F)(F)F)c2)C(=O)C1c1ccc(O)cc1 (stereo not shown) [Example 2, 4-[2,5-dioxo-4-(4-hydroxyphenyl)-3-methyl-imidazolidin-1-yl]-2-trifluoromethylbenzonitrile] | 157.4 °C | 9.65 nM | –
